“And” between values parts separate entries of the source, which are not always exact repeats. Equal entries are not always repeated.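 Results reflect a 48-hour exposure of cells in 96-well plates to compound at five concentrations. GI50: concentration for 50% inhibition of growth. TGI denotes the concentration required for complete inhibition of growth.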
Experiments:
Assay in all cases: NCI tumour cell line growth inhibition, 48 h
NCI/ADR-RES ovarian = test system: NCI/ADR-RES ovarian
A549 NSCLC = test system: A549 NSCLC
RPMI-8226 leukemia = test system: RPMI-8226 leukemia
COLO 205 colon = test system: COLO 205 colon
HCC-2998 colon = test system: HCC-2998 colon
PC-3 prostate = test system: PC-3 prostate
OVCAR-4 ovarian = test system: OVCAR-4 ovarian
MDA-MB-435 = test system: MDA-MB-435
SK-MEL-5 melanoma = test system: SK-MEL-5 melanoma
SF-539 CNS = test system: SF-539 CNS

Structure (SMILES) | GI50 (NCI/ADR-RES ovarian) | TGI (NCI/ADR-RES ovarian) | GI50 (A549 NSCLC) | TGI (A549 NSCLC) | GI50 (RPMI-8226 leukemia) | TGI (RPMI-8226 leukemia) | GI50 (COLO 205 colon) | TGI (COLO 205 colon) | GI50 (HCC-2998 colon) | TGI (HCC-2998 colon) | GI50 (PC-3 prostate) | TGI (PC-3 prostate) | GI50 (OVCAR-4 ovarian) | TGI (OVCAR-4 ovarian) [µM] | GI50 (MDA-MB-435) | TGI (MDA-MB-435) | GI50 (SK-MEL-5 melanoma) | TGI (SK-MEL-5 melanoma) | GI50 (SF-539 CNS) | TGI (SF-539 CNS)
O=C1C2=C(C(=O)c3ccccc31)C(O)(S(=O)(=O)O)C(O)(S(=O)(=O)O)C1N=CC=CC21 (configuration not stated) | 2.45 µM and 1.27 µM | 18.6 µM and 23.7 µM | 4.75 µM and 4.09 µM | 37.1 µM and 16.1 µM | 4.99 µM and 3.99 µM | > 100 µM and 27.6 µM | 7.08 µM and 4.11 µM | 29.9 µM and 61.5 µM | 4.63 µM and 3.93 µM | 60.4 µM and 17.5 µM | 4.69 µM and 3.2 µM | > 100 µM and 29.6 µM | 3.66 µM and 2.99 µM | > 100 | 4.56 µM and 3.56 µM | 80.5 µM and 24.8 µM | 3.96 µM and 3.63 µM | 16.3 µM and 14.5 µM | 4.01 µM and 3.89 µM | 19.9 µM and 18.1 µM
COC(=O)[C@]1(C)CCC[C@@]2(C)C3=C(CC[C@H]12)C[C@@H](CC(OC(C)=O)OC(C)=O)[C@@H](C)C3 | 8.95 µM | 16.3 µM | 15.4 µM | > 43.6 µM | 5.23 µM | 27.7 µM | 11 µM | 27.4 µM | 9.32 µM | 16.3 µM | 11.4 µM | > 29 µM | 14.4 µM | 47.4 | 9.96 µM | 20.5 µM | 8.4 µM | 15.6 µM | 10.7 µM | 20.3 µM
O=C1/C=C/[C@@H](O)[C@@H]2C[C@@H](O)C[C@H]2/C=C/CCC[C@H](CCO)O1 | 0.176 µM | – | 0.401 µM | > 100 µM | 0.33 µM | 6.34 µM | 0.104 µM | 0.241 µM | 0.227 µM | – | 0.367 µM | > 100 µM | 0.132 µM | > 100 | 0.254 µM | > 100 µM | 0.0201 µM | 0.0423 µM | 0.469 µM | > 100 µM
O=C(Nc1nc2c(C(F)(F)F)cccc2s1)c1cc(Cl)ccc1O | 0.311 µM | 21.6 µM | 0.316 µM | > 100 µM | 0.203 µM | 0.52 µM | 0.52 µM | 2.42 µM | 0.451 µM | 14.1 µM | 0.302 µM | 30.3 µM | 0.34 µM | > 100 | 0.323 µM | > 100 µM | 0.193 µM | 0.446 µM | 0.286 µM | 1.96 µM
CN1C(=O)N(C)C2C1NC(=S)N2/N=C/C=C/c1ccccc1[N+](=O)[O-] (configuration not stated) | 2.16 µM | > 100 µM | 2.15 µM | > 100 µM | 2.74 µM | > 100 µM | 1.23 µM | 6.77 µM | 2.56 µM | > 100 µM | 0.967 µM | > 100 µM | > 100 µM | > 100 | 0.271 µM | 0.997 µM | 0.753 µM | > 100 µM | 0.537 µM | 8.44 µM
COc1cc(OC)c(/C=C/C(=O)c2c(OC)cc(OC)cc2OC)c(OC)c1 | 0.469 µM | 10 µM | 1.72 µM | > 76.3 µM | 0.566 µM | 3.03 µM | 1.08 µM | 3.96 µM | 1.24 µM | 10 µM | 0.992 µM | > 100 µM | 5.94 µM | > 100 | 0.235 µM | 0.694 µM | 0.818 µM | 11.2 µM | 1.27 µM | 3.31 µM
CCC(=O)NC1=C(Cl)C(=O)C(NC(=O)CC)=C(Cl)C1=O | 24 µM | 58.6 µM | 29.4 µM | > 61.8 µM | 8.98 µM | 30.4 µM | 5.97 µM | 10.8 µM | 17.4 µM | 32.1 µM | 8.5 µM | 21 µM | 14.4 µM | 29 | 18.9 µM | 33.8 µM | 17.6 µM | 31.7 µM | > 44.4 µM | > 58.2 µM
CN1CCN(Cc2ccc(NC(=O)c3cncc(C#Cc4ccc(N)nc4)c3)cc2C(F)(F)F)CC1 | 1.9 µM | 10.3 µM | 1.38 µM | 7.24 µM | 1.05 µM | 3.82 µM | 0.865 µM | 3.95 µM | 1.96 µM | 6.96 µM | 1.58 µM | 8.3 µM | 0.46 µM | 4.5 | 1.09 µM | 5.68 µM | 1.17 µM | 3.24 µM | 0.501 µM | 1.66 µM
COc1cc2ncnc(Oc3ccc(NC(=O)Nc4ccc(CN5CCOCC5)c(C(F)(F)F)c4)c4ccccc34)c2cc1OC | 0.919 µM | 21 µM | 0.734 µM | 10.5 µM | 0.297 µM | 2.02 µM | 0.558 µM | 3.91 µM | 4.8 µM | 18.8 µM | 1.75 µM | 9.36 µM | 0.124 µM | 8.69 | 0.436 µM | 2.83 µM | 0.499 µM | 2.34 µM | 1.36 µM | 16.1 µM
CC(=O)C1=C(C)N(Cc2ccccc2)C2(O)C=CC(=O)C3=C(O)c4ccccc4C(=O)C312 (configuration not stated) | 3.02 µM | > 100 µM | 20.1 µM | > 100 µM | 2.35 µM | 6.38 µM | 2.38 µM | 5.04 µM | 13 µM | 36.4 µM | 10.3 µM | 31.2 µM | 4.84 µM | 44.3 | 2.26 µM | 4.14 µM | 3.63 µM | 12.5 µM | 2.91 µM | 7.09 µM
CCC(=O)OCOc1ccc(/C=C2\CCC(CN(C)C)C2=O)cc1 (configuration not stated) | – | 6.78 µM | – | 40.3 µM | – | > 23.3 µM | – | 15.8 µM | – | 18.5 µM | – | 27.6 µM | – | 15.3 | – | 10.6 µM | – | 26.6 µM | – | 17.3 µM
CCN1CCN(c2ccc(NC(=O)Nc3nc4ccc(-c5ccccc5OC)cc4s3)cc2)CC1 | 1.72 µM | 3.35 µM | 1.98 µM | 3.59 µM | 2.06 µM | 4.6 µM | 1.97 µM | 3.85 µM | 1.83 µM | 3.39 µM | 1.79 µM | 3.47 µM | 1.68 µM | 3.31 | 1.71 µM | 3.14 µM | 1.73 µM | 3.12 µM | 1.6 µM | 3.03 µM
CC1=CC(C)=N/C(=N/S(=O)(=O)c2cc(C)c(Cl)cc2SCc2ccccc2)NN1 | > 100 µM | > 100 µM | > 100 µM | > 100 µM | > 100 µM | > 100 µM | > 100 µM | > 100 µM | > 100 µM | > 100 µM | > 100 µM | > 100 µM | 79.1 µM | > 100 | > 100 µM | > 100 µM | > 100 µM | > 100 µM | 81.1 µM | > 100 µM
C=C1C(=O)O[C@@H]2/C=C(/C)[C@@H](OC(C)=O)C[C@@H](O)/C(C)=C\[C@@H](OC(=O)[C@]3(C)O[C@@H]3C)[C@@H]12 | – | > 100 µM | – | > 100 µM | – | 26.3 µM | – | 19.4 µM | – | 34.5 µM | – | 32.3 µM | – | 45.8 | – | 28.8 µM | – | 24.7 µM | – | 46.5 µM
Nc1ccc(C#Cc2ccccc2C#CCCCCO)cc1 | 18.9 µM | 40.4 µM | 14.7 µM | 28.7 µM | 18.1 µM | 44.2 µM | 16.1 µM | 30.1 µM | 16.6 µM | 31.3 µM | 15.6 µM | 28.9 µM | 16.7 µM | 32.6 | 19.7 µM | 36.6 µM | 19.8 µM | 38.6 µM | 17.6 µM | 33.9 µM
Cc1ccsc1C(NC(=O)c1ccccc1)c1cc(Cl)c2cccnc2c1O (configuration not stated) | 0.284 µM | 7.18 µM | 0.764 µM | 13.6 µM | 0.475 µM | 16.3 µM | 0.318 µM | 10.6 µM | 0.775 µM | 16.2 µM | 0.45 µM | 16.6 µM | 0.479 µM | 12.8 | 0.505 µM | 17.2 µM | 0.583 µM | 5.14 µM | 0.479 µM | 10.4 µM
CC(C)[C@@H](C(=O)O[C@@H]1/C=C/C(=O)O[C@@H](C)CCC/C=C/[C@@H]2C[C@H](O)C[C@H]21)N(C)C | 24.6 µM | > 93.6 µM | 24 µM | > 100 µM | 3.93 µM | 27.1 µM | 8.95 µM | 25.5 µM | 20 µM | 55.1 µM | 6.77 µM | 61.6 µM | 9.09 µM | > 61.9 | 7.43 µM | 41.4 µM | 2.25 µM | 5.37 µM | 22.5 µM | 67.4 µM
CC1=CC2(C)/C=C(C)/C=C\CC(O)/C=C3/C=CC(=C4C(=O)OC2(CC1C)C4=O)OC3 (configuration not stated) | 3.08 µM | 12.2 µM | 3.66 µM | 16.8 µM | 0.328 µM | – | 1.47 µM | 3.65 µM | 5.78 µM | 22.2 µM | 1.45 µM | 7.89 µM | 1.89 µM | 4.91 | 2 µM | 5.12 µM | 3.07 µM | 11.6 µM | 2.49 µM | 6.72 µM
Clc1ccc2c(NC3CCC(N4CCCCC4)CC3)ccnc2c1 (configuration not stated) | – | > 100 µM | – | > 100 µM | – | 84 µM | – | 27.2 µM | – | 27.4 µM | – | > 100 µM | – | 78.6 | – | 28.5 µM | – | 30.6 µM | – | 36.2 µM
